Data reported in patent US9492482B2, “Engineered cells expressing multiple immunomodulators and uses thereof” (Intrexon Corporation, priority 2008, dated 2016).

System: DC.RheoIL12
Assay: IL-12 secretion from DC.RheoIL12 with or without activating ligand
Format: cell-based
Conditions: in the presence of the activating ligand RG-115830 but not in the absence of the ligand
Procedure: In one embodiment, the invention provides an engineered population of immune cells and TSC. In one embodiment, day 7 cultured DC are treated with recombinant adenovirus encoding an immunomodulator and/or IL-12 driven off a constitutive or inducible promoter, or are infected with mock, control adenovirus vector (rAdψ5), over a range of multiplicity of infection (MOIs). After 48 h, infected DC are harvested and analyzed for phenotype and for production of an immunomodulator and/or IL-12 using a specific ELISA kit (BD-PharMingen, San Diego, Calif.), with a lower level of detection of 62.5 pg/ml.

CCCC(N(NC(=O)c1cccc(OC)c1CC)C(=O)c1cc(C)cc(C)c1)C(C)(C)C (stereo not shown) [RG-115830, 3,5-Dimethyl-benzoic acid N-(1-tert-butyl-butyl)-N′-(2-ethyl-3-methoxy-benzoyl)-hydrazide]
IL-12 secreted from DC.RheoIL12: elevated levels of IL-12 are secreted
